The values below come from patent publication US20100152165A1, “CARBOXYLIC ACID DERIVATIVES” (priority 2006, published 2010).

One test addresses T1, human GPR40 (Homo sapiens, UniProt O14842).
T1 construct: expressed in transfected cells
In words: GPR40 agonist activity measurement (FLIPR, intracellular calcium). To be noted: human GPR40-expressed CHO cell strain; fluorescence intensity change one minute after measurement. Type of test: cell-based. From the text: Test Method 1: GPR40 Agonist Activity Measurement
i) Cloning of Human GPR40
In accordance with the following procedure, complete length sequence of GPR40 was obtained by a PCR method using a human genomic DNA (Clontech) as the template.
An oligonucleotide consisting of the nucleotide sequence represented by SEQ ID NO:1 was used as the forward primer, and an oligonucleotide consisting of the nucleotide sequence represented by SEQ ID NO:2 as the reverse primer. In this connection, a nucleotide sequence containing a XbaI recognition sequence is added to the […] of each of the aforementioned forward primer and reverse primer. In the PCR, a cycle consisting of 94° C. (15 seconds)/55° C. (30 seconds)/72° C. (1 minute) was repeated 30 times using a Taq DNA polymerase (Ex Taq DNA polymerase; Takara Bio) in the presence of 5% dimethyl sulfoxide (DMSO). As a result, a DNA fragment of about 0.9 kbp was amplified. This DNA fragment was digested with XbaI and then inserted into the XbaI site of a plasmid pEF-BOS-dhfr (Nucleic Acids Research, 18, 5322, 1990) to obtain a plasmid pEF-BOS-dhfr-GPR40.
Nucleotide sequence of GPR40 gene in the plasmid pEF-BOS-dhfr-GPR40 was determined by the dideoxy terminator method using a DNA sequencer (ABI 377 DNA Sequencer; Applied Biosystems). Nucleotide sequence of the GPR40 gene was as the nucleotide sequence represented by SEQ ID NO:3.
ii) Preparation of GPR40 Stable Expression Cell
A CHO dhfr cell (a dihydrofolate reductase (dhfr) gene-deficient CHO cell) was used as the cell for expressing GPR40 protein. In addition, the plasmid pEF-BOS-dhfr-GPR40 obtained in the aforementioned i) was used as the expression plasmid for expressing the GPR40 protein. The CHO dhfr cell in 10% fetal calf serum (FCS)-containing aMEM medium was inoculated into a 6 well plate and cultured overnight to a stage of 80 to 90% confluent, and then gene transfer of 2 μg per well of the plasmid pEF-BOS-dhfr-GPR40 was carried out using a transfection reagent (Lipofectamine 2000; Invitrogen). After 24 hours of the culturing since the gene transfer, the cells were diluted and inoculated again. […] After 20 days of culturing, the thus formed colonies of cells were individually recovered and cultured to obtain CHO cells stably expressing GPR40. Cells showing high reactivity for integral ligands oleic acid and linoleic acid were selected from them.
iii) GPR40 Agonist Activity Measurement
This test was measured by FLIPR (registered trade mark, Molecular Device) using change in the intracellular calcium concentration as the index. The test method is shown below.
A human GPR40-expressed CHO cell strain was inoculated in 6×10^3 cells per well portions into a 384 well black plate (Becton-Dickinson). A Calcium-3 assay kit (Molecular Device) was used as the […] and dissolved in 10 ml per bottle of HBSS-HEPES buffer (pH 7.4, 1×HBSS, 20 mM HEPES, Invitrogen). A 35.68 mg portion of probenecid (Sigma) was dissolved in 250 μl of 1 M NaOH and then adjusted by adding 250 μl of HBSS-HEPES buffer. The fluorescence pigment solution was prepared by mixing 16 ml of HBSS-HEPES buffer, 640 μl of the fluorescence pigment and 32 μl of probenecid, per plate. The medium in the plate was discarded, and the fluorescence pigment solution was dispensed in 40 μl per well portions and incubated at room temperature for 2 hours. Each compound to be tested was dissolved in DMSO, diluted with HBSS-HEPES buffer and then dispensed in 10 μl portions into the plate to start the reaction and measure change in the intracellular calcium concentration by FLIPR. EC50 values of the compounds to be tested were calculated from the dose-response curve of fluorescence intensity changes one minute after the measurement.

In another test the test system is normal mice. As to the kind of experiment: Normal mice single administration oral glucose tolerance test. Type of test: in vivo. To be noted: male ICR mice; 10 mg/kg oral 30 minutes before glucose (2 g/kg) loading; at 30 minutes of glucose loading, based on control group. The method, then:
Test Method 3: Normal Mice Single Administration Oral Glucose Tolerance Test
This test examined on the blood glucose suppressive action of compounds to be tested after glucose loading using normal mice. Male ICR mice (6 weeks of age) were reared for 1 week in advance, subjected to overnight fasting and then used as animals to be tested. Each compound to be tested was prepared into a 0.5% methyl cellulose suspension and orally administered at a dose of 10 mg/kg 30 minutes before the glucose (2 g/kg) loading. In the control group, 0.5% methyl cellulose was administered. Blood glucose decreasing ratio (%) at the time of 30 minutes of glucose loading was calculated based on the control group.

For a further test, the system named is MIN6 cell. As to the kind of experiment: Insulin secretion promoting action using MIN6 cell. In kind it is cell-based, mouse. To be noted: relative activity value at 1 μM of compound, control (DMSO) 100%; KRB-HEPES with 2.8 mM or 22.4 mM glucose, 37° C. 2 hours. How it is done:
Test Method 2: Insulin Secretion Promoting Action using MIN6 Cell
In this test, the insulin secretion promoting action of compounds to be tested was examined using a mouse pancreatic β cell strain, MIN6 cell. The test method is shown below.
The MIN6 cell was inoculated onto a 96 well plate to a density of 5×10^4 cells/well (200 μl). As the medium, DMEM medium (25 mM glucose) containing 10% FBS, 55 μM of 2-mercaptoethanol, 100 U/ml of penicillin and 100 μg/ml of streptomycin was used. Two days thereafter, the medium was removed using an aspirator, and the plate was once washed with 200 μl of KRB-HEPES (116 mM NaCl, 4.7 mM KCl, 1.2 mM KH2PO4, 1.2 mM MgSO4, 0.25 mM CaCl2, 25 mM NaHCO3, 0.005% FFA Free BSA, 24 mM HEPES (pH 7.4)) containing 2.8 mM glucose, which had been warmed up to 37° C., and again filled with 200 μl of the same buffer and incubated at 37° C. for 1 hour. After removing the aforementioned buffer using an aspirator, this was again washed with the buffer (200 μl), and then a predetermined concentration of each compound to be tested was added to KRB-HEPES containing 2.8 mM or 22.4 mM of glucose, added in 100 μl portions to respective wells and incubated at 37° C. for 2 hours. The aforementioned samples were collected and diluted 100 times, and the insulin concentration was determined using an insulin RIA kit (Amersham). […]

T1 sequence (O14842 whole entry R211H): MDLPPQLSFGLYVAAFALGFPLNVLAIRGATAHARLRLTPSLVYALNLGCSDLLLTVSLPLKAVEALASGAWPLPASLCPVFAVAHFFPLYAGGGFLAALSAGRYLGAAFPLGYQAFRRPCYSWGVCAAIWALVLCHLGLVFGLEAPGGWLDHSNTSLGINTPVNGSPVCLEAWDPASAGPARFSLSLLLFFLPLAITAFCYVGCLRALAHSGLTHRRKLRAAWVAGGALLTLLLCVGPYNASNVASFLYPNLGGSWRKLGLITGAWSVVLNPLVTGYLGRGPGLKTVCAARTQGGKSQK

On to `O=C(O)[C@@H]1C[C@H]1c1ccc(NCc2cccc3c2CCCN3CCOc2ccccc2)cc1` [Example 455], for which the EC50 at human GPR40 was 360 nM.
Consider `O=C(O)CCc1ccc(NCc2ccc3c(c2)N(c2ccccc2)CCC3)cc1F` [Example 86], for which the EC50 on human GPR40 was determined as 19 nM.
`COc1ccccc1CCN1CCCc2ccc(CNc3ccc(CCC(=O)O)c(F)c3)c(C)c21` [Example 188]: in the test with normal mice, the “Blood glucose decreasing ratio” value is given as 24%. Besides, at human GPR40, the EC50 is 36 nM.
Take `O=C(O)CCc1ccc(OCc2ccc3c(c2)N(CCC(F)(F)F)CCC3)cc1F` [Example 73]: the EC50 at human GPR40 stood at 73 nM.
For the compound `Cc1cccc(N2CCCc3ccc(CNc4ccc(CCC(=O)O)c(F)c4)c(C)c32)c1` [Example 215], the EC50 on human GPR40 was 320 nM.
For the compound `Cc1c(CNc2ccc(CCC(=O)[O-])c(F)c2)ccc2c1N(c1ccccn1)CCC2.[Na+]` [Example 453], in the test on normal mice, the “Blood glucose decreasing ratio” value was 24%. On human GPR40, the EC50 was 25 nM.
Turning to `O=C(O)CCc1ccc(NCc2cccc3c2CCCN3CCOc2ccccc2)cc1F` [Example 104], the “Insulin secretion promoting action” value in the test on MIN6 cell was 162%. In addition, the “Blood glucose decreasing ratio” value in the test with normal mice came to 20%. The EC50 on human GPR40 came out at 420 nM.
In the case of `Cc1c(CNc2ccc(CCC(=O)O)c(F)c2)ccc2c1N(c1ccc(C(F)(F)F)cc1)CCC2` [Example 211], the half-maximal effective concentration (EC50) at human GPR40 came out at 930 nM.
The same measure, in the same setting: with `COc1ccccc1OCCN1CCCc2c(CNc3ccc(CCC(=O)O)c(F)c3)cccc21` [Example 176] the figure was 91 nM.
As to `Cc1ccc(CNc2ccc(CCC(=O)O)c(F)c2)c2c1N(CCOc1ccccc1)CCC2` [Example 424], the EC50 at human GPR40 is 130 nM.
Consider `CC(=O)N1CCCc2ccc(COc3ccc(CCC(=O)O)c(F)c3)cc21` [Example 74], for which the EC50 at human GPR40 is 75 nM.
On to `CCCN1CCCc2cccc(CNc3ccc(CCC(=O)[O-])c(F)c3)c21.[Na+]` [Example 57], for which the “Insulin secretion promoting action” value with MIN6 cell came to 167%. For the same compound, the EC50 at human GPR40 was 97 nM.
Consider `O=C(O)CCc1ccc(NCc2cccc3c2CCCN3CCc2ccccc2)cc1F` [Example 89], for which, in the test on normal mice, the “Blood glucose decreasing ratio” value was determined as 21%. For the same compound, on human GPR40, the EC50 was 620 nM.
In the case of `CCCN1CCCc2c(CNc3ccc(CCC(=O)O)c(F)c3)cccc21` [Example 87], the EC50 at human GPR40 was 82 nM.
In the case of `O=C(O)CCc1ccc(NCc2cccc3c2CCCN3CCOc2ccccc2)nc1` [Example 437], the EC50 on human GPR40 was 730 nM.

One may read the EC50 as the concentration at which the effect is half-maximal.
